According to US10703755B2, “Substituted purine derivative” (SUMITOMO DAINIPPON PHARMA CO., LTD., priority 2016, dated 2020):
Blank lines part the entries; values can stand above or below the compound they belong to.

Target: human TLR7 (Homo sapiens (Human), UniProt Q9NYK1)
Assay: Test for evaluating the inhibition of the activation of human TLR7 (SEAP reporter, TLR7/NF-κB/SEAPorter HEK293 cell)
Type: cell-based
Conditions: R-848 200 nmol/L; for inhibitory effect against TLR7 in the test for evaluating inhibition of the activation of TLR7: SEAP activity, result in words; for IC50: SEAP reporter
Procedure, shortened: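 HEK293 cells stably expressing full-length human TLR7 and an NF-κB-driven SEAP reporter. They were grown in DMEM with 10% FBS and blasticidin, and seeded at 5×10^4 cells/well overnight at 37° C, 5% CO2. Inhibition of TLR7 activation was read as SEAP output.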

human TLR7, sequence (Q9NYK1 27-1049): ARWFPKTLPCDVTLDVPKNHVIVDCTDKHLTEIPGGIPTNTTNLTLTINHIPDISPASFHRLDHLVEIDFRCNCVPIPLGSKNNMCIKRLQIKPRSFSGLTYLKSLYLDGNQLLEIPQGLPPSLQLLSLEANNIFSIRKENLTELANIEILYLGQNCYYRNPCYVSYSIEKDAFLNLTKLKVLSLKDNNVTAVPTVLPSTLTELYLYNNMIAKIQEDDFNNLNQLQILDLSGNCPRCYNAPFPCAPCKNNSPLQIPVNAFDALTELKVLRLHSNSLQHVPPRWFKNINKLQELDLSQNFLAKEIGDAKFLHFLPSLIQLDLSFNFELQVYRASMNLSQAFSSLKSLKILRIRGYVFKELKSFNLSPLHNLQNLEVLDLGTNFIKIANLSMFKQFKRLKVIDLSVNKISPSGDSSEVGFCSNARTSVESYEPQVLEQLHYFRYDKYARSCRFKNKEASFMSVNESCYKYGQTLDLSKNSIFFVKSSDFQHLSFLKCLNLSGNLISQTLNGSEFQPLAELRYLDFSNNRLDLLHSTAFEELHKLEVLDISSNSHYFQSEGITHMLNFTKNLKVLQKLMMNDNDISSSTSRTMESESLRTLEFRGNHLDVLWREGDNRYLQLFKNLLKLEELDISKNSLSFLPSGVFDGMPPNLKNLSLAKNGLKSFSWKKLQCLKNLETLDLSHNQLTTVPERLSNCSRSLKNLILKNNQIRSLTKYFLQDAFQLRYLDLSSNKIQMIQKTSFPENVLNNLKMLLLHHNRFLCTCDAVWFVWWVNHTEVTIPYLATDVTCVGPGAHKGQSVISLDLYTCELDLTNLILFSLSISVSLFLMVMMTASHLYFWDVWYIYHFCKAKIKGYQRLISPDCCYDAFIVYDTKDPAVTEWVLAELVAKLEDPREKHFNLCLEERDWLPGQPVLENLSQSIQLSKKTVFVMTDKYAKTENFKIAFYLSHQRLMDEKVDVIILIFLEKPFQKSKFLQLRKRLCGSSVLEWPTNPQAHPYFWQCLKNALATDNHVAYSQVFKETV

SMILES: COc1nc(C)c2nc(-c3cncc(F)c3)n(Cc3ccc(O[C@@H]4CCN(C)C4)cc3F)c2n1 [Example 415, 9-(2-fluoro-4-{[(3R)-1-methylpyrrolidin-3-yl]oxy}benzyl)-8-(5-fluoropyridin-3-yl)-2-methoxy-6-methyl-9H-purine]
- inhibitory effect against TLR7 in the test for evaluating inhibition of the activation of TLR7: potent inhibitory effect against TLR7
- IC50: 16 nM

SMILES: CCOc1nc(C)c2nc(-c3cncc(F)c3)n(Cc3ccc(C4CN5CCC4CC5)cc3OC)c2n1 (stereo not drawn) [Example 372, 9-[4-(1-azabicyclo[2.2.2]oct-3-yl)-2-methoxybenzyl]-2-ethoxy-8-(5-fluoropyridin-3-yl)-6-methyl-9H-purine]
- inhibitory effect against TLR7 in the test for evaluating inhibition of the activation of TLR7: potent inhibitory effect against TLR7
- IC50: 11 nM

SMILES: CCCCOc1nc(N)c2nc(-c3cccnc3)n(Cc3cccnc3)c2n1 [Example 3]
- IC50: 9200 nM

SMILES: COc1nc(C)c2nc(-c3cncc(C)c3)n(Cc3ccc(C4CN5CCC4CC5)cc3F)c2n1 (stereo not drawn) [Example 305, 9-[4-(1-azabicyclo[2.2.2]oct-3-yl)-2-fluorobenzyl]-2-methoxy-6-methyl-8-(5-methylpyridin-3-yl)-9H-purine]
- inhibitory effect against TLR7 in the test for evaluating inhibition of the activation of TLR7: potent inhibitory effect against TLR7
- IC50: 5 nM

SMILES: CCCCOc1nc(N)c2nc(-c3cccnc3)n(Cc3ccccc3)c2n1 [Example 2]
- IC50: 5500 nM

SMILES: COc1nc(C)c2nc(-c3cncc(F)c3)n(Cc3ccc(Br)c(F)c3)c2n1 [Example 332]
- IC50: 6480 nM

SMILES: CCOc1nc(C)c2nc(-c3cncc(F)c3)n(Cc3cnc(C4CN5CCC4CC5)c(F)c3)c2n1 (stereo not drawn) [Example 383]
- inhibitory effect against TLR7 in the test for evaluating inhibition of the activation of TLR7: potent inhibitory effect against TLR7
- IC50: 83 nM

SMILES: COc1nc(C)c2nc(-c3cncc(C#N)c3)n(Cc3ccc(C4CN5CCC4CC5)cc3F)c2n1 (single isomer, unassigned) [Example 403, 5-{9-[4-(1-azabicyclo[2.2.2]oct-3-yl)-2-fluorobenzyl]-2-methoxy-6-methyl-9H-purin-8-yl}pyridine-3-carbonitrile]
- inhibitory effect against TLR7 in the test for evaluating inhibition of the activation of TLR7: potent inhibitory effect against TLR7
- IC50: 21 nM

SMILES: CCOc1nc(N)c2nc(-c3cncc(F)c3)n(Cc3ccc(C4CN5CCC4CC5)cc3)c2n1 (stereo not drawn) [Example 46]
- inhibitory effect against TLR7 in the test for evaluating inhibition of the activation of TLR7: potent inhibitory effect against TLR7
- IC50: 25 nM

SMILES: CCCCOc1nc(N)c2nc(-c3ccccc3)n(Cc3cccnc3)c2n1 [Example 9]
- IC50: 12800 nM

SMILES: COc1nc(C)c2nc(-c3cncc(F)c3)n(Cc3ccc(C4CN5CCC4CC5)cc3F)c2n1 (stereo not drawn) [Example 392, 9-[4-(1-azabicyclo[2.2.2]oct-3-yl)-2-fluorobenzyl]-8-(5-fluoropyridin-3-yl)-2-methoxy-6-methyl-9H-purine]
- inhibitory effect against TLR7 in the test for evaluating inhibition of the activation of TLR7: potent inhibitory effect against TLR7

SMILES: COc1nc(C)c2nc(-c3cncc(F)c3)n(Cc3ccc(O[C@@H]4CN5CCC4CC5)cc3F)c2n1 [Example 412, 9-{4-[(3S)-1-azabicyclo[2.2.2]oct-3-yloxy]-2-fluorobenzyl}-8-(5-fluoropyridin-3-yl)-2-methoxy-6-methyl-9H-purine]
- inhibitory effect against TLR7 in the test for evaluating inhibition of the activation of TLR7: potent inhibitory effect against TLR7
- IC50: 5 nM

SMILES: CCOc1nc(C)c2nc(-c3cncc(F)c3)n(Cc3ccc(O[C@H]4CN5CCC4CC5)nc3)c2n1 [Example 72]
- inhibitory effect against TLR7 in the test for evaluating inhibition of the activation of TLR7: potent inhibitory effect against TLR7
- IC50: 81 nM

SMILES: COc1nc(C)c2nc(-c3cncc(F)c3)n(Cc3ccc(C4CN5CCC4CC5)cn3)c2n1 (stereo not drawn) [Example 371]
- IC50: 264 nM

SMILES: COc1nc(C)c2nc(-c3cncnc3)n(Cc3ccc(OC4CC5CCC(C4)N5C)cc3F)c2n1 (stereo not drawn) [Example 294, 9-(2-fluoro-4-{[(3-endo)-8-methyl-8-azabicyclo[3.2.1]oct-3-yl]oxy}benzyl)-2-methoxy-6-methyl-8-(pyrimidin-5-yl)-9H-purine]
- inhibitory effect against TLR7 in the test for evaluating inhibition of the activation of TLR7: potent inhibitory effect against TLR7
- IC50: 19 nM

SMILES: COc1nc(C)c2nc(-c3cncc(F)c3)n(Cc3ccc(C4=CN5CCC4CC5)cn3)c2n1 [Example 353]
- IC50: 504 nM

SMILES: COc1nc(C)c2nc(-c3cccnc3)n(Cc3ccc(C4CN5CCC4CC5)cc3F)c2n1 (stereo not drawn) [Example 303, 9-[4-(1-azabicyclo[2.2.2]oct-3-yl)-2-fluorobenzyl]-2-methoxy-6-methyl-8-(pyridin-3-yl)-9H-purine]
- inhibitory effect against TLR7 in the test for evaluating inhibition of the activation of TLR7: potent inhibitory effect against TLR7
- IC50: 7 nM

SMILES: COc1nc(C)c2nc(-c3cncc(F)c3)n(Cc3ccc(CC4CCNCC4)cc3F)c2n1 [Example 432]
- inhibitory effect against TLR7 in the test for evaluating inhibition of the activation of TLR7: potent inhibitory effect against TLR7
- IC50: 62 nM

Second part, the compound after the results:

- inhibitory effect against TLR7 in the test for evaluating inhibition of the activation of TLR7: potent inhibitory effect against TLR7
- IC50: 19 nM
SMILES: CCOc1nc(N)c2nc(-c3cncc(F)c3)n(Cc3ccc(CN4C[C@@H]5C[C@H]4CN5CC)cc3)c2n1 [Example 128]

- inhibitory effect against TLR7 in the test for evaluating inhibition of the activation of TLR7: potent inhibitory effect against TLR7
- IC50: 26 nM
SMILES: CCOc1nc(C)c2nc(-c3cncc(F)c3)n(Cc3ccc(CN4CCN5CC[C@@H]4C5)cc3)c2n1 [Example 174, 9-{4-[(5R)-1,4-diazabicyclo[3.2.1]oct-4-ylmethyl]benzyl}-2-ethoxy-8-(5-fluoropyridin-3-yl)-6-methyl-9H-purine]

- inhibitory effect against TLR7 in the test for evaluating inhibition of the activation of TLR7: potent inhibitory effect against TLR7
- IC50: 20 nM
SMILES: CCOc1nc(N)c2nc(-c3cncc(F)c3)n(Cc3ccc(CN4C[C@@H]5C[C@H]4CN5C)cc3)c2n1 [Example 94]

- IC50: 2700 nM
SMILES: CCCCOc1nc(N)c2nc(-c3cncc(C)c3)n(Cc3ccccc3)c2n1 [Example 18]

- IC50: 99 nM
SMILES: CCOc1nc(C)c2nc(-c3cncc(F)c3)n(Cc3cnn(CC4CCNC4)c3)c2n1 (stereo not drawn) [Example 271]

- IC50: 582 nM
SMILES: CCOc1nc(C)c2nc(-c3cncc(F)c3)n(Cc3ccc(C4=CN5CCC4CC5)nc3C#N)c2n1 [Example 361]

- IC50: 950 nM
SMILES: CCOc1nc(N)c2nc(-c3cncc(F)c3)n(Cc3ccc(-c4cncc(F)c4)cc3)c2n1 [Example 45]

- IC50: 1300 nM
SMILES: CCOc1nc(C)c2nc(-c3cncc(F)c3)n(Cc3ccc(CO)cc3)c2n1 [Example 78]

- IC50: 2500 nM
SMILES: COCCOc1nc(N)c2nc(-c3cncc(F)c3)n(Cc3ccc(CN(C)C)cc3)c2n1 [Example 87]

- inhibitory effect against TLR7 in the test for evaluating inhibition of the activation of TLR7: potent inhibitory effect against TLR7
- IC50: 57 nM
SMILES: CCOc1nc(C)c2nc(-c3cncc(F)c3)n(Cc3ccc(C4CN(C)CCO4)cc3F)c2n1 (stereo not drawn) [Example 307]

- IC50: 1160 nM
SMILES: CCOC1CN(Cc2ccc(Cn3c(-c4cncc(F)c4)nc4c(C)nc(OC)nc43)c(F)c2)C1 [Example 261]

- inhibitory effect against TLR7 in the test for evaluating inhibition of the activation of TLR7: potent inhibitory effect against TLR7
- IC50: 53 nM
SMILES: CCOc1nc(N)c2nc(-c3cncc(F)c3)n(Cc3ccc(C4CCN(C)CC4)cc3)c2n1 [Example 127, 2-Ethoxy-8-(5-fluoropyridin-3-yl)-9-[4-(1-methylpiperidin-4-yl)benzyl]-9H-purine-6-amine]

- IC50: 7000 nM
SMILES: CCNc1nc(N)c2nc(-c3cncc(F)c3)n(Cc3ccc(CN(C)C)cc3)c2n1 [Example 117]

- IC50: 209 nM
SMILES: CCOc1nc(C)c2nc(-c3cncc(F)c3)n(Cc3ccccc3OC)c2n1 [Example 373]
